Measurements as given in US20240150715A1 (Sciperio, Inc, priority 2022, published 2024).

Experiments:
Assay type in all cases: cell-based
[1] = test system: RBCs differentiated from HSCs; experiment: Enucleation, maturation and morphology of manufactured RBCs (DRAQ5-, CD235a+; leukofiltration; Leishman stain); details: for concentration of enucleated cells after leukofiltration: FIG. 6B
Description: FIG. 6 illustrates ferric citrate-treated RBCs enucleate at rates similar to transferrin-treated RBCs.

[2] = test system: differentiating HSCs in high density culture; experiment: Analysis of culture medium: metabolic waste, LDH release, amino acid consumption; details: ferric citrate compared with transferrin
[3] = test system: differentiating hematopoietic stem cells (HSCs); experiment: High-density differentiation of HSCs into RBCs: culture density / proliferation; details: ferric citrate compared with transferrin, FIG. 5A
Description: (B) Secretion of cellular waste compounds ammonia and lactate is equivalent between ferric citrate and transferrin, indicating similar metabolic rates. (C) Rates of lytic cell death are similar between cultures treated with ferric citrate and transferrin, as is indicated by the release of lactate dehydrogenase (LDH). (D) Amino acid consumption is similar between the two conditions, as is represented by the consumption of alanine and other amino acids.
The medium formulation has specifically been designed for the efficient, high density, in vitro manufacture of RBCs from HSCs in bioreactors. It is formulated to optimally supply certain growth factors at elevated concentrations for rapid HSC expansion and mediated erythropoiesis using a bioreactor (FIG. 1). The formulation has been determined experimentally using the average depletion rates of various factors by differentiating HSCs in high-density culture (FIG. 2), and can be employed in the production of manufactured RBCs both in static culture (e.g. culture flasks) and in continually agitated suspension culture (e.g. bioreactors).
The present inventors have experimentally determined that a concentration range between 1 μg/mL and 500 μg/mL is effective in driving directed HSC differentiation through the stages of erythropoiesis in a manner that is equivalent to that of holo-transferrin (FIG. 4).

Row | Compound | concentration of enucleated cells after leukofiltration [1] [%] | cell morphology ([1]; Leishman stain, ferric citrate compared with transferrin, FIG. 6C) | difference in overall enucleation ([1]; ferric citrate versus transferrin, after differentiation in optimized medium, FIG. 6A) [%] | secretion of cellular waste compounds ammonia and lactate ([2]; FIG. 5B) | amino acid consumption (alanine and other amino acids) ([2]; FIG. 5D) | effect on HSC density and cumulative population doubling [3]
1 | transferrin: iron-loaded protein holo-transferrin, traditional iron source in HSC culture media | 79 |  |  |  |  | 
2 | O=C([O-])CC(O)(CC(=O)[O-])C(=O)[O-].[Fe+3] [ferric citrate, iron (III) citrate] | 74.8 | morphologically similar | ~4 | equivalent | similar | comparable
